Series [1] addresses T1, wild-type nAChR α7 receptors (Homo sapiens, UniProt P36544).
T1 construct: expressed in transfected cells; host or cells: Xenopus laevis oocytes
As to the kind of experiment: Positive modulation of nAChR α7 currents in Xenopus laevis oocytes (two-electrode voltage clamp). The following applies: nAChR α7 expressed in Xenopus laevis oocytes, clamped at −60 mV, 100 μM acetylcholine; for Emax: (test-control)/control×100%, read-out: calculated EC50 Imax (maximal modulation of the control response); for pEC50: test compound 0.01-31.6 μM, read-out: calculated EC50 (positive modulation of acetylcholine-induced current). The series is classed as cell-based. The procedure: In this example the positive modulation of wild-type nAChR α7 receptors by Compounds 3, 7 and 8, representative of the invention, was determined using nAChR a7 receptors heterologously expressed in Xenopus laevis oocytes.
The electrical current through the nAChR α7 channel was measured using conventional two-electrode voltage clamp and nAChR α7 currents were activated by applying pulses of agonist-containing solution onto the nAChR α7 expressing oocyte.
In brief, the oocytes were placed in a recording chambers and continuously super-fused with an Oocyte Ringer (OR) solution containing 90 mM NaCl, 2.5 mM KCl, 2.5 mM CaCl2, 1 mM MgCl2 and 5 mM HEPES (pH adjusted to 7.4). The oocytes were clamped at −60 mV and currents were induced by applying 20 s pulses of 100 μM acetylcholine dissolved in OR. The intervals between the acetylcholine applications were 5 minutes, during which the oocytes were washed with OR. The first three applications were control applications to insure a constant response level of 100 μM acetylcholine. For the subsequent test applications, increasing concentrations (0.01-31.6 μM) of the test compound were applied 30 s before and during the acetylcholine (100 μM) application, which caused a robust increase in the acetylcholine-induced current amplitude.
The positive modulation in the presence of Compound 4 was calculated as (test-control)/control×100% and the concentration response curve for this positive modulation was fitted to the sigmoidal logistic equation: I=Imax/(1+(EC50/[compound])^n), where Imax represents the maximal modulation of the control response, EC50 is the concentration causing a half maximal response, and n is the slope coefficient.

pEC50: −log10 of the molar value.

T1 sequence (P36544 23-502): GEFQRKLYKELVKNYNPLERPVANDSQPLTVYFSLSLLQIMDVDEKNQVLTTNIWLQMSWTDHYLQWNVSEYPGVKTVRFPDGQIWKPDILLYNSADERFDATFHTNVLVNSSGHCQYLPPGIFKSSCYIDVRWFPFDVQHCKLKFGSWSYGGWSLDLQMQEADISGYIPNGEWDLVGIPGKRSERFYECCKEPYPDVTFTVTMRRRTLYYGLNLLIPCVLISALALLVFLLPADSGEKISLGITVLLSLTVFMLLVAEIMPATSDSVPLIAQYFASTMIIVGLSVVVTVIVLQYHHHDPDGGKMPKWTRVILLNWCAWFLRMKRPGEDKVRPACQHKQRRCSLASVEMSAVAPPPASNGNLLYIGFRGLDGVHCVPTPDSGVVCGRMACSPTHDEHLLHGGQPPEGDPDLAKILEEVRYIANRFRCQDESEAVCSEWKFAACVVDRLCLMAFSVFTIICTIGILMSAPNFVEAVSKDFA

Turning to `COc1ccc(-c2nnn(-c3ccc(C(F)(F)F)cc3F)c2C)cc1` [Compound 1, 1-(2-Fluoro-4-trifluoromethyl-phenyl)-4-(4-methoxy-phenyl)-5-methyl-1H-[1,2,3]triazole], the melting point was 96.5 to 98.9 °C. On to `Cc1c(-c2ccc(O)cc2)nnn1-c1ccc(C(F)(F)F)cc1Cl` [Compound 3, 4-[1-(2-Chloro-4-trifluoromethyl-phenyl)-5-methyl-1H-[1,2,3]triazol-4-yl]-phenol], for which, in series [1], the Emax was 119% and the pEC50 was 4.85. Regarding `COc1ccc(-c2nnn(-c3ccc(C(F)(F)F)cc3Cl)c2CO)cc1` [Compound 7, [3-(2-Chloro-4-trifluoromethyl-phenyl)-5-(4-methoxy-phenyl)-3H-[1,2,3]triazol-4-yl]-methanol], in series [1], the Emax was 128% and the pEC50 is 4.77. The matching figures for `OCc1c(-c2ccc(O)cc2)nnn1-c1ccc(C(F)(F)F)cc1Cl` [Compound 8, 4-[1-(2-Chloro-4-trifluoromethyl-phenyl)-5-hydroxymethyl-1H-[1,2,3]triazol-4-yl]-phenol]: 136% and 4.96.

The melting point is the temperature of the solid-liquid transition. Broadly, the pEC50 is −log10 of the EC50, conventionally taken in molar units.

Source of the values: patent publication US20110201656A1, “NOVEL DIPHENYL 1,2,3-TRIAZOLE DERIVATIVES USEFUL AS MODULATORS OF NICOTINIC ACETYLCHOLINE RECEPTORS” (NEUROSEARCH A/S, priority 2008, published 2011).
